Results taken from PubChem BioAssay AID1259407 (Chemical Carcinogenesis Research Information System (CCRIS), 2018).
Active and inactive are the calls of the source. The rule behind the calls is not given here.

Test system: CCRIS mutagenicity, Ames/micronucleus/aberration tests
Test: CCRIS mutagenicity studies
[1] = Test System: AMES SALMONELLA TYPHIMURIUM, Strain/Indicator: TA98, Metabolic Activation: NONE, Method: PREINCUBATION
[2] = Test System: AMES SALMONELLA TYPHIMURIUM, Strain/Indicator: TA100, Metabolic Activation: NONE, Method: PREINCUBATION
[3] = Test System: AMES SALMONELLA TYPHIMURIUM, Strain/Indicator: TA100, Metabolic Activation: RAT, LIVER, S-9, PCB, Method: PREINCUBATION
[4] = Test System: AMES SALMONELLA TYPHIMURIUM, Strain/Indicator: TA1535, Metabolic Activation: NONE, Method: STANDARD PLATE
[5] = Test System: AMES SALMONELLA TYPHIMURIUM, Strain/Indicator: TA100, Metabolic Activation: RAT, LIVER, S-9, AROCLOR 1254, Method: STANDARD PLATE
[6] = Test System: AMES SALMONELLA TYPHIMURIUM, Strain/Indicator: TA100, Metabolic Activation: NONE, Method: STANDARD PLATE

In the case of `CNc1ccc2nc(C)cnc2c1C`, the mutagenic call [1] was “inactive; negative”, the mutagenic call (Test System: AMES SALMONELLA TYPHIMURIUM, Strain/Indicator: TA98, Metabolic Activation: RAT, LIVER, S-9, PCB, Method: PREINCUBATION) was “active; positive” and the mutagenic call [2] was “inactive; negative”. The mutagenic call [3] was “active; positive”.

In the case of `CC(=O)OCN(CCCCl)N=O`, the mutagenic call (Test System: AMES SALMONELLA TYPHIMURIUM, Strain/Indicator: TA92, Metabolic Activation: NONE, Method: STANDARD PLATE) was “active; positive” and the mutagenic call [4] was “active; positive”.

For `O=[N+]([O-])c1ccc(-c2csc(Cl)n2)o1`, the mutagenic call (Test System: E. COLI, Strain/Indicator: WP2, Metabolic Activation: NONE, Method: SPOT) was “active; positive” and the mutagenic call (Test System: E. COLI, Strain/Indicator: WP2 UVRA, Metabolic Activation: NONE, Method: SPOT) was “active; positive”.

For `CC(C)[C@](O)(C(=O)O)[C@@H](C)O`, the mutagenic call (Test System: AMES SALMONELLA TYPHIMURIUM, Strain/Indicator: TA100, Metabolic Activation: HAMSTER, LIVER, S-9, PCB, Method: PREINCUBATION) was “inactive; negative” and the mutagenic call [3] was “inactive; negative”.

For `CC(C)c1ccccc1OP(=O)(Oc1ccccc1)Oc1ccccc1`, the mutagenic call (Test System: AMES SALMONELLA TYPHIMURIUM, Strain/Indicator: TA97, Metabolic Activation: HAMSTER, LIVER, S-9, AROCLOR 1254 (10 OR 30%), Method: PREINCUBATION) was “inactive; negative”, the mutagenic call (Test System: AMES SALMONELLA TYPHIMURIUM, Strain/Indicator: TA97, Metabolic Activation: NONE, Method: PREINCUBATION) was “inactive; negative” and the mutagenic call (Test System: AMES SALMONELLA TYPHIMURIUM, Strain/Indicator: TA97, Metabolic Activation: RAT, LIVER, S-9, AROCLOR 1254 (10 OR 30%), Method: PREINCUBATION) was “inactive; negative”. The mutagenic call (Test System: AMES SALMONELLA TYPHIMURIUM, Strain/Indicator: TA98, Metabolic Activation: HAMSTER, LIVER, S-9, AROCLOR 1254 (10 OR 30%), Method: PREINCUBATION) was “inactive; negative”, the mutagenic call [1] was “inactive; negative” and the mutagenic call (Test System: AMES SALMONELLA TYPHIMURIUM, Strain/Indicator: TA98, Metabolic Activation: RAT, LIVER, S-9, AROCLOR 1254 (10 OR 30%), Method: PREINCUBATION) was “inactive; negative”. For the same compound, the mutagenic call (Test System: AMES SALMONELLA TYPHIMURIUM, Strain/Indicator: TA100, Metabolic Activation: HAMSTER, LIVER, S-9, AROCLOR 1254 (10 OR 30%), Method: PREINCUBATION) was “inactive; negative”, the mutagenic call [2] was “inactive; negative” and the mutagenic call (Test System: AMES SALMONELLA TYPHIMURIUM, Strain/Indicator: TA100, Metabolic Activation: RAT, LIVER, S-9, AROCLOR 1254 (10 OR 30%), Method: PREINCUBATION) was “inactive; negative”. For the same compound, the mutagenic call (Test System: AMES SALMONELLA TYPHIMURIUM, Strain/Indicator: TA1535, Metabolic Activation: HAMSTER, LIVER, S-9, AROCLOR 1254 (10 OR 30%), Method: PREINCUBATION) was “inactive; negative”, the mutagenic call (Test System: AMES SALMONELLA TYPHIMURIUM, Strain/Indicator: TA1535, Metabolic Activation: NONE, Method: PREINCUBATION) was “inactive; negative” and the mutagenic call (Test System: AMES SALMONELLA TYPHIMURIUM, Strain/Indicator: TA1535, Metabolic Activation: RAT, LIVER, S-9, AROCLOR 1254 (10 OR 30%), Method: PREINCUBATION) was “inactive; negative”.

For `O=c1c(=O)c2cc3ccccc3c3ccc4cccc1c4c23`, the mutagenic call [5] was “active; positive”.

For `Fc1cc2cccnc2c(F)c1F`, the mutagenic call (Test System: AMES SALMONELLA TYPHIMURIUM, Strain/Indicator: TA100, Metabolic Activation: RAT LIVER S-9, PHENOBARBITAL AND 5,6-BENZOFLAVONE, Method: PREINCUBATION) was “inactive; negative”.

For `CCCC(=O)Nc1snc2ccccc12`, the mutagenic call [6] was “inactive; negative” and the mutagenic call (Test System: AMES SALMONELLA TYPHIMURIUM, Strain/Indicator: TA100, Metabolic Activation: S-9, Method: STANDARD PLATE) was “inactive; negative”.

For `O=[N+]([O-])/C=C/c1ccco1`, the mutagenic call (End Point: IN VITRO MICRONUCLEUS, Test System: HUMAN LYMPHOCYTES, Metabolic Activation: NONE) was “inactive; negative”, the mutagenic call (End Point: IN VITRO MICRONUCLEUS, Test System: HUMAN LYMPHOCYTES, Metabolic Activation: S-9) was “inactive; negative” and the mutagenic call (End Point: IN VIVO MICRONUCLEUS, Test System: BONE MARROW, Species: MOUSE, Strain/Sex: CD-1/MALE, Route: INTRAPERITONEAL) was “inactive; negative”. For the same compound, the mutagenic call [1] was “inactive; negative”.

`Cc1cccc2ccc3c4ccccc4ccc3c12` was tested, and the mutagenic call (Test System: AMES SALMONELLA TYPHIMURIUM, Strain/Indicator: TA100, Metabolic Activation: RAT, LIVER, MICROSOMES, 4-METHYLCHRYSENE, Method: STANDARD PLATE) was “inactive; negative”, the mutagenic call (Test System: AMES SALMONELLA TYPHIMURIUM, Strain/Indicator: TA100, Metabolic Activation: RAT, LIVER, MICROSOMES, AROCLOR 1254, Method: STANDARD PLATE) was “active; positive” and the mutagenic call (Test System: AMES SALMONELLA TYPHIMURIUM, Strain/Indicator: TA100, Metabolic Activation: RAT, LIVER, MICROSOMES, Method: STANDARD PLATE) was “inactive; negative”.

With `CCCCOC(=O)CC(CC(=O)OCCCC)(OC(C)=O)C(=O)OCCCC` the mutagenic call (Test System: AMES SALMONELLA TYPHIMURIUM, Strain/Indicator: TA98, Metabolic Activation: HAMSTER, LIVER, S-9, AROCLOR 1254, Method: STANDARD PLATE) was “inactive; negative”, the mutagenic call (Test System: AMES SALMONELLA TYPHIMURIUM, Strain/Indicator: TA98, Metabolic Activation: NONE, Method: STANDARD PLATE) was “inactive; negative” and the mutagenic call (Test System: AMES SALMONELLA TYPHIMURIUM, Strain/Indicator: TA98, Metabolic Activation: RAT, LIVER, S-9, AROCLOR 1254, Method: STANDARD PLATE) was “inactive; negative”. The mutagenic call (Test System: AMES SALMONELLA TYPHIMURIUM, Strain/Indicator: TA100, Metabolic Activation: HAMSTER, LIVER, S-9, AROCLOR 1254, Method: STANDARD PLATE) was “inactive; negative”, the mutagenic call [6] was “inactive; negative” and the mutagenic call [5] was “inactive; negative”. The mutagenic call (Test System: AMES SALMONELLA TYPHIMURIUM, Strain/Indicator: TA1535, Metabolic Activation: HAMSTER, LIVER, S-9, AROCLOR 1254, Method: STANDARD PLATE) was “inactive; negative”, the mutagenic call [4] was “inactive; negative” and the mutagenic call (Test System: AMES SALMONELLA TYPHIMURIUM, Strain/Indicator: TA1535, Metabolic Activation: RAT, LIVER, S-9, AROCLOR 1254, Method: STANDARD PLATE) was “inactive; negative”. The mutagenic call (Test System: AMES SALMONELLA TYPHIMURIUM, Strain/Indicator: TA1537, Metabolic Activation: HAMSTER, LIVER, S-9, AROCLOR 1254, Method: STANDARD PLATE) was “inactive; negative”, the mutagenic call (Test System: AMES SALMONELLA TYPHIMURIUM, Strain/Indicator: TA1537, Metabolic Activation: NONE, Method: STANDARD PLATE) was “inactive; negative” and the mutagenic call (Test System: AMES SALMONELLA TYPHIMURIUM, Strain/Indicator: TA1537, Metabolic Activation: RAT, LIVER, S-9, AROCLOR 1254, Method: STANDARD PLATE) was “inactive; negative”. For the same compound, the mutagenic call (Test System: AMES SALMONELLA TYPHIMURIUM, Strain/Indicator: TA1538, Metabolic Activation: HAMSTER, LIVER, S-9, AROCLOR 1254, Method: STANDARD PLATE) was “inactive; negative”, the mutagenic call (Test System: AMES SALMONELLA TYPHIMURIUM, Strain/Indicator: TA1538, Metabolic Activation: NONE, Method: STANDARD PLATE) was “inactive; negative” and the mutagenic call (Test System: AMES SALMONELLA TYPHIMURIUM, Strain/Indicator: TA1538, Metabolic Activation: RAT, LIVER, S-9, AROCLOR 1254, Method: STANDARD PLATE) was “inactive; negative”. The mutagenic call (Test System: MOUSE LYMPHOMA, Strain/Indicator: L5178Y (TK+/TK-), Metabolic Activation: NONE, Method: SUSPENSION/PLATE) was “inactive; negative. reevaluation of results: inconclusive” and the mutagenic call (Test System: MOUSE LYMPHOMA, Strain/Indicator: L5178Y (TK+/TK-), Metabolic Activation: RAT, LIVER, S-9, AROCLOR 1254, Method: SUSPENSION/PLATE) was “inactive; negative. reevaluation of results: negative”.

For `O=C(Cl)Cc1ccccc1`, the mutagenic call [1] was “active; positive”, the mutagenic call (Test System: AMES SALMONELLA TYPHIMURIUM, Strain/Indicator: TA98, Metabolic Activation: RAT LIVER S-9, PCB, Method: PREINCUBATION) was “active; positive” and the mutagenic call [2] was “active; positive”. The mutagenic call (Test System: AMES SALMONELLA TYPHIMURIUM, Strain/Indicator: TA100, Metabolic Activation: RAT LIVER S-9, PCB, Method: PREINCUBATION) was “active; positive”, the mutagenic call (Test System: AMES SALMONELLA TYPHIMURIUM, Strain/Indicator: TA104, Metabolic Activation: NONE, Method: PREINCUBATION) was “active; positive” and the mutagenic call (Test System: AMES SALMONELLA TYPHIMURIUM, Strain/Indicator: TA104, Metabolic Activation: RAT LIVER S-9, PCB, Method: PREINCUBATION) was “active; positive”. The mutagenic call (Test System: E.COLI, Strain/Indicator: WP2 UVRA, Metabolic Activation: NONE, Method: PREINCUBATION) was “active; positive” and the mutagenic call (Test System: E.COLI, Strain/Indicator: WP2 UVRA, Metabolic Activation: RAT LIVER S-9, PCB, Method: PREINCUBATION) was “active; positive”.
